Measurements published in PubChem BioAssay (NCI).
Values joined by “and” are separate entries in the source; they are usually repeats but may differ in a detail not shown here. Identical values can stand only once.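 Cultured in 96-well plates, cells were exposed to test compound for 48 hours across five concentrations. GI50 is the concentration that inhibits growth by half. TGI: total growth inhibition.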

Assays:
Assay in all cases: NCI tumour cell line growth inhibition, 48 h
XF 498 CNS = tested on: XF 498 CNS
DLD-1 colon = tested on: DLD-1 colon
MDA-MB-435 = tested on: MDA-MB-435
SNB-78 CNS = tested on: SNB-78 CNS
DMS 114 small cell lung = tested on: DMS 114 small cell lung
LXFL 529 NSCLC = tested on: LXFL 529 NSCLC
NCI/ADR-RES ovarian = tested on: NCI/ADR-RES ovarian
HL-60(TB) leukemia = tested on: HL-60(TB) leukemia
M14 melanoma = tested on: M14 melanoma
MCF7 breast = tested on: MCF7 breast

Row | Structure (SMILES) | GI50 (XF 498 CNS) [nM] | TGI (XF 498 CNS) | GI50 (DLD-1 colon) [nM] | TGI (DLD-1 colon) | GI50 (MDA-MB-435) [nM] | TGI (MDA-MB-435) | GI50 (SNB-78 CNS) [nM] | TGI (SNB-78 CNS) [nM] | GI50 (DMS 114 small cell lung) [nM] | TGI (DMS 114 small cell lung) | GI50 (LXFL 529 NSCLC) [nM] | TGI (LXFL 529 NSCLC) [nM] | GI50 (NCI/ADR-RES ovarian) [nM] | TGI (NCI/ADR-RES ovarian) [nM] | GI50 (HL-60(TB) leukemia) | TGI (HL-60(TB) leukemia) [nM] | GI50 (M14 melanoma) [nM] | TGI (M14 melanoma) | TGI (MCF7 breast) [nM]
1 | CCN(CC)CC.CCOc1ccc(NC(=O)N=C=[N-])cc1.[CH-]1CCCCC1.[CH-]1CCCCC1.[CH-]1CCCCC1.[Cl-].[Sn+4] | 33.5 | 103 nM | 18 | 47.8 nM | 15.1 | 29.6 nM | 47.2 | 373 | 21.4 | 59.4 nM | 19.3 | 48.8 | 22.1 | 55.9 | 18.4 nM | 58.4 | 26.4 | 72.7 nM | 
2 | C[C@H](N)C(=O)N[C@@H]1[C@H]2C(=C(O)C[C@@H](O)[C@@H]2O)C(=O)O[C@]1(C)C(Cl)Cl | 211 | 1050 nM and 310 nM | 185 | 1620 nM and 2430 nM | 309 | 3420 nM and 860 nM |  | 2100 |  | 980 nM and 1280 nM |  | 1530 |  | 29100 | 254 nM and 149 nM |  | 258 | 1490 nM and 507 nM | 1520
3 | CC1=C(C(=O)Nc2ccccc2C)C(c2ccc(C3C(C(=O)Nc4ccccc4C)=C(C)NC(C)=C3C(=O)Nc3ccccc3C)cc2)C(C(=O)Nc2ccccc2C)=C(C)N1 |  | 35600 nM |  | 5660 nM |  | 14300 nM |  | 16700 |  | 14000 nM |  | 10500 |  |  |  | 6150 |  | 8230 nM | 19500
4 | C#Cc1c(C)c(/C=C/C(C)=C/C=C/C(C)=C/C(=O)OC)n(C)c1C |  | > 100000 nM |  | > 100000 nM |  |  |  | > 100000 |  | > 100000 nM |  | > 100000 |  |  |  | > 100000 |  | > 100000 nM | 
5 | CCOC(=O)C1(C#N)C(c2ccccc2)CC(O)(c2ccc([N+](=O)[O-])cc2)C(C(=O)c2ccc([N+](=O)[O-])cc2)C1c1ccccc1 (stereo not given) |  | > 100000 nM |  | > 100000 nM |  |  |  | > 100000 |  | > 100000 nM |  | > 100000 |  |  |  | > 100000 |  | > 100000 nM | 
6 | COc1ccc2c(c1O)C(=O)C(CCC(=O)O)CC2 (stereo not given) |  | > 100000 nM |  | > 100000 nM |  |  |  | > 100000 |  | > 100000 nM |  | > 100000 |  |  |  | > 100000 |  | > 100000 nM | 
7 | CC(C)N(C(=O)C1(C)CC1)C(C)C |  | > 100000 nM |  | > 100000 nM |  |  |  | > 100000 |  | > 100000 nM |  | > 100000 |  |  |  | > 100000 |  | > 100000 nM | 
8 | C[N+](C)(C)CC(=O)N/N=C(\CCC(=O)NCCc1ccccc1)CC(=O)c1ccccc1 |  | > 100000 nM |  | > 100000 nM |  |  |  | > 100000 |  | > 100000 nM |  | > 100000 |  |  |  | > 100000 |  | > 100000 nM | 
9 | CCOC(=O)C[C@@H](C)[C@]1(C(=O)OC)CCCC1=O |  | > 100000 nM |  | > 71300 nM |  |  |  | > 100000 |  | > 58900 nM |  | > 100000 |  |  |  | > 100000 |  | > 100000 nM | 
10 | COc1cc(Br)c(CC2(C#N)c3ccccc3C3C(N2C(=O)c2ccccc2)C3(Cl)Cl)cc1OC (stereo not given) |  | > 65500 nM |  | > 65500 nM |  |  |  | > 65500 |  | > 65500 nM |  | > 65500 |  |  |  | 30200 |  | > 65500 nM | 
